This note sets out measurements from patent US20110224186A1, “CARBACEPHEM BETA-LACTAM ANTIBIOTICS” (Achaogen, Inc., priority 2008, published 2011).

Structures are written as SMILES. ≈ marks a conversion by molar mass, not a printed value. Bounds are passed on as bounds.

Holding throughout (assay): MIC assay, broth microdilution in CAMHB
Holding throughout (type): cell-based
For orientation: In broth dilution the organism is exposed to a series of concentrations in liquid medium.

Assay [1] deals with S. aureus ASAU001 (Susceptible Organism ATCC 29213). The conditions noted are these: 16-20 h at 35° C.; for MIC: Staphylococcus aureus, ATCC29213, 2% NaCl, read-out: MIC ASAU 001. As to the method:
(§1) The in vitro MIC for bacterial isolates may be obtained in the following manner: a test compound is incorporated into a series of two-fold dilutions in cation adjusted Mueller-Hinton broth (CAMHB). Different bacterial strains diluted to provide a uniform inoculum are added to the CAMHB containing test compounds. A well without test compound is included for each strain as a growth control. […] The procedures used in these experiments are generally those standardized by the Clinical and Laboratory Standards Institute (CLSI), as set forth in the CLSI publication entitled “M7-A7. Methods for dilution antimicrobial susceptibility tests for bacteria that grow aerobically; approved standard-seventh edition.” (2006), which is incorporated by reference as if fully set forth herein. The following exemplifies such a procedure although it is to be understood that modifications of the procedure may be implemented as required.
(§2) Two-fold dilutions of the test compounds are prepared in CAMHB at 2× the concentration range to be tested if the compounds are soluble in aqueous solution. Alternately, dimethylsulfoxide (DMSO) is used to prepare two-fold dilutions at 10× the concentration range to be tested. Reference drugs such as cefotaxime, vancomycin or imipenem are used as positive controls. A few isolated colonies are retrieved from a pure culture prepared on an agar plate and suspended in PBS until the turbidity of the suspension matches a 0.5 McFarland standard which is equal to approximately 10^8 CFU/mL. This solution is further diluted in CAMHB to 10^6 CFU/mL if compounds are diluted in CAMHB and 5×10^5 CFU/mL if compounds are diluted in DMSO. The CAMHB plates containing the compound dilutions are combined in equal volumes with the higher density inoculum, or 10 μL of the DMSO dilutions are added to the lower density inoculum. When S. aureus is the organism being tested and the compound is oxacillin, a beta-lactam or a carbacephem compound of the present invention, 2% NaCl is added to the growth media. The plates are then incubated for 16-20 h at 35° C. The plates are then observed to determine which concentration of the test compound is the MIC.

Assay [2] has as its system S. aureus ASAU002 (MRSA ATCC 33591). The conditions noted are these: 2% NaCl, 16-20 h at 35° C.; for MIC: Staphylococcus aureus, read-out: MIC ASAU 002. Here is the method:
as §1, §2

The test system of assay [3] is S. aureus ASAU1028 (CA-MRSA, USA400). The conditions noted are these: 2% NaCl, 16-20 h at 35° C.; for MIC: Staphylococcus aureus, read-out: MIC ASAU 1028. As to the method: as §1, §2
The test system of assay [4] is S. aureus ASAU1029 (CA-MRSA, USA300). The conditions noted are these: 2% NaCl, 16-20 h at 35° C.; for MIC: Staphylococcus aureus, read-out: MIC ASAU 1029. Here is the method: as §1, §2
The subject of assay [5] is S. aureus ASAU1033 (MRSA, CIP, ERY, CLIN, TET, GEN resistant). The conditions noted are these: 2% NaCl, 16-20 h at 35° C.; for MIC: Staphylococcus aureus, read-out: MIC ASAU 1033. Here is the method:
as §1, §2

For assay [6], the system named is S. aureus ASAU1043 (MRSA, CIP, ERY, CLI, GEN resistant). The conditions noted are these: 2% NaCl, 16-20 h at 35° C.; for MIC: Staphylococcus aureus, read-out: MIC ASAU 1043. Here is the method: as §1, §2

The MIC is the least concentration at which growth counts as inhibited. In the case of `Nc1nc(/C(=N\O)C(=O)NC2C(=O)N3C(C(=O)O)=C(/C=C4\CCN(C5CCNC5)C4=O)CS[C@H]23)ns1` (stereo partly drawn) [Comparative Compound 1, reference compound], the MIC in assay [1] was ≤ 1 µg/mL; in assay [2] it was 1 to 8 µg/mL (≈ 1.87 to 15 µM); in assay [3], ≤ 1 µg/mL; in assay [4], ≤ 1 µg/mL; in assay [5], 1 to 8 µg/mL (≈ 1.87 to 15 µM); in assay [6], 1 to 8 µg/mL (≈ 1.87 to 15 µM).
Consider `Nc1nnc(SC2=C(C(=O)O)N3C(=O)[C@@H](NC(=O)/C(=N\O)c4nc(N)sc4Cl)[C@H]3CC2)s1` [Comparative Compound 2, reference compound], for which the MIC in assay [1] is ≤ 1 µg/mL; in assay [2], ≤ 1 µg/mL; in assay [3], 1 to 8 µg/mL (≈ 1.93 to 15.5 µM); in assay [4], 1 to 8 µg/mL (≈ 1.93 to 15.5 µM); in assay [5] it was 1 to 8 µg/mL (≈ 1.93 to 15.5 µM); in assay [6], 1 to 8 µg/mL (≈ 1.93 to 15.5 µM).
With `Nc1nc(/C(=N/O)C(=O)N[C@@H]2C(=O)N3C(C(=O)O)=C(SCc4ccncc4)CC[C@H]23)c(Cl)s1` [Example 17, (6R,7S,Z)-7-(2-(2-amino-5-chlorothiazol-4-yl)-2-(hydroxyimino)acetamido)-8-oxo-3-(pyridin-4-ylmethylthio)-1-aza-bicyclo[4.2.0]oct-2-ene-2-carboxylic acid], the MIC in assay [1] is ≤ 1 µg/mL; in assay [2], > 8 µg/mL; in assay [3], 1 to 8 µg/mL (≈ 1.96 to 15.7 µM); in assay [4], 1 to 8 µg/mL (≈ 1.96 to 15.7 µM); in assay [5] it was > 8 µg/mL; in assay [6], > 8 µg/mL.
`Nc1nc(/C(=N/O)C(=O)N[C@@H]2C(=O)N3C(C(=O)O)=C(SCc4ccccc4)CC[C@H]23)c(Cl)s1` [Example 18, (6R,7S,Z)-7-(2-(2-amino-5-chlorothiazol-4-yl)-2-(hydroxyimino)acetamido)-3-(benzylthio)-8-oxo-1-aza-bicyclo[4.2.0]oct-2-ene-2-carboxylic acid]: the minimal inhibitory concentration (MIC) is ≤ 1 µg/mL in assay [1]; ≤ 1 µg/mL in assay [2]; ≤ 1 µg/mL in assay [3]; ≤ 1 µg/mL in assay [4]; 1 to 8 µg/mL (≈ 1.97 to 15.7 µM) in assay [5]; 1 to 8 µg/mL (≈ 1.97 to 15.7 µM) in assay [6].
With `Nc1nc(/C(=N/O)C(=O)N[C@@H]2C(=O)N3C(C(=O)O)=C(SCSc4nncs4)CC[C@H]23)c(Cl)s1` [Example 23, (6R,7S,Z)-3-((1,3,4-thiadiazol-2-ylthio)methylthio)-7-(2-(2-amino-5-chlorothiazol-4-yl)-2-(hydroxyimino)acetamido)-8-oxo-1-aza-bicyclo[4.2.0]oct-2-ene-2-carboxylic acid], the MIC in assay [1] was ≤ 1 µg/mL; in assay [2], 1 to 8 µg/mL (≈ 1.82 to 14.6 µM); in assay [3], 1 to 8 µg/mL (≈ 1.82 to 14.6 µM); in assay [4], 1 to 8 µg/mL (≈ 1.82 to 14.6 µM); in assay [5], > 8 µg/mL; in assay [6], > 8 µg/mL.
On to `CNc1nnc(SCSC2=C(C(=O)O)N3C(=O)[C@@H](NC(=O)/C(=N\O)c4nc(N)sc4Cl)[C@H]3CC2)s1` [Example 25, (6R,7S,Z)-7-(2-(2-amino-5-chlorothiazol-4-yl)-2-(hydroxyimino)acetamido)-3-((5-(methylamino)-1,3,4-thiadiazol-2-ylthio)methylthio)-8-oxo-1-aza-bicyclo[4.2.0]oct-2-ene-2-carboxylic acid], for which the MIC in assay [1] was ≤ 1 µg/mL; in assay [2], 1 to 8 µg/mL (≈ 1.73 to 13.9 µM); in assay [3], 1 to 8 µg/mL (≈ 1.73 to 13.9 µM); in assay [4], 1 to 8 µg/mL (≈ 1.73 to 13.9 µM); in assay [5], > 8 µg/mL; in assay [6], > 8 µg/mL.
Turning to `Nc1nc(/C(=N/O)C(=O)N[C@@H]2C(=O)N3C(C(=O)O)=C(SCc4cn[nH]c4)CC[C@H]23)c(Cl)s1` [Example 27, (6R,7S,Z)-3-((1H-pyrazol-4-yl)methylthio)-7-(2-(2-amino-5-chlorothiazol-4-yl)-2-(hydroxyimino)acetamido)-8-oxo-1-aza-bicyclo[4.2.0]oct-2-ene-2-carboxylic acid], the MIC was ≤ 1 µg/mL in assay [1]; 1 to 8 µg/mL (≈ 2.01 to 16.1 µM) in assay [2]; 1 to 8 µg/mL (≈ 2.01 to 16.1 µM) in assay [3]; 1 to 8 µg/mL (≈ 2.01 to 16.1 µM) in assay [4]; > 8 µg/mL in assay [5]; > 8 µg/mL in assay [6].
For the compound `Cc1ncsc1/C=C\C1=C(C(=O)O)N2C(=O)[C@@H](NC(=O)/C(=N\O)c3nc(N)sc3Cl)[C@H]2CC1` [Example 29, (6R,7S)-7-((Z)-2-(2-amino-5-chlorothiazol-4-yl)-2-(hydroxyimino)acetamido)-3-((Z)-2-(4-methylthiazol-5-yl)vinyl)-8-oxo-1-aza-bicyclo[4.2.0]oct-2-ene-2-carboxylic acid], the MIC in assay [1] was ≤ 1 µg/mL; in assay [2], 1 to 8 µg/mL (≈ 1.96 to 15.7 µM); in assay [3], ≤ 1 µg/mL; in assay [4] it was ≤ 1 µg/mL; in assay [5], 1 to 8 µg/mL (≈ 1.96 to 15.7 µM); in assay [6], 1 to 8 µg/mL (≈ 1.96 to 15.7 µM).
With `Cc1ncsc1/C=C\C1=C(C(=O)O)N2C(=O)[C@@H](NC(=O)/C(=N\O)c3nc(N)sc3Cl)[C@H]2CC1` [Example 31, (6R,7S)-7-((Z)-2-(2-amino-5-chlorothiazol-4-yl)-2-(hydroxyimino)acetamido)-3-((Z)-2-(4-methylthiazol-5-yl)vinyl)-8-oxo-1-aza-bicyclo[4.2.0]oct-2-ene-2-carboxylic acid], the “MIC ASAU 001” value in assay [1] (2% NaCl) is recorded as “A (MIC's of 1.0 μg/mL or less = A)”. Moreover, the “MIC ASAU 002” value in assay [2] is “B (MIC's of greater than 1.0 μg/mL to 8.0 μg/mL = B)”. In addition, in assay [3], the “MIC ASAU 1028” value is on record as “B (MIC's of greater than 1.0 μg/mL to 8.0 μg/mL = B)”. Moreover, the “MIC ASAU 1029” value in assay [4] is listed as “B (MIC's of greater than 1.0 μg/mL to 8.0 μg/mL = B)”. Also, the “MIC ASAU 1033” value in assay [5] was “B (MIC's of greater than 1.0 μg/mL to 8.0 μg/mL = B)”. In addition, the “MIC ASAU 1043” value in assay [6] is on record as “B (MIC's of greater than 1.0 μg/mL to 8.0 μg/mL = B)”.
On to `Nc1nc(/C(=N/O)C(=O)N[C@@H]2C(=O)N3C(C(=O)O)=C(/C=C4\CCN([C@@H]5CCNC5)C4=O)CC[C@H]23)c(Cl)s1` [Example 34, (6R,7S)-7-((Z)-2-(2-amino-5-chlorothiazol-4-yl)-2-(hydroxyimino)acetamido)-8-oxo-3-((E)-((R)-2-oxo-1,3′-bipyrrolidin-3-ylidene)methyl)-1-aza-bicyclo[4.2.0]oct-2-ene-2-carboxylic acid], for which the MIC in assay [1] is ≤ 1 µg/mL; in assay [2], 1 to 8 µg/mL (≈ 1.82 to 14.5 µM); in assay [3], 1 to 8 µg/mL (≈ 1.82 to 14.5 µM); in assay [4], ≤ 1 µg/mL; in assay [5], 1 to 8 µg/mL (≈ 1.82 to 14.5 µM); in assay [6] it was 1 to 8 µg/mL (≈ 1.82 to 14.5 µM).
